The target of experiment [1] is T1, rat DTDST (Rattus norvegicus, UniProt O70531).
T1 sequence (O70531 1-739): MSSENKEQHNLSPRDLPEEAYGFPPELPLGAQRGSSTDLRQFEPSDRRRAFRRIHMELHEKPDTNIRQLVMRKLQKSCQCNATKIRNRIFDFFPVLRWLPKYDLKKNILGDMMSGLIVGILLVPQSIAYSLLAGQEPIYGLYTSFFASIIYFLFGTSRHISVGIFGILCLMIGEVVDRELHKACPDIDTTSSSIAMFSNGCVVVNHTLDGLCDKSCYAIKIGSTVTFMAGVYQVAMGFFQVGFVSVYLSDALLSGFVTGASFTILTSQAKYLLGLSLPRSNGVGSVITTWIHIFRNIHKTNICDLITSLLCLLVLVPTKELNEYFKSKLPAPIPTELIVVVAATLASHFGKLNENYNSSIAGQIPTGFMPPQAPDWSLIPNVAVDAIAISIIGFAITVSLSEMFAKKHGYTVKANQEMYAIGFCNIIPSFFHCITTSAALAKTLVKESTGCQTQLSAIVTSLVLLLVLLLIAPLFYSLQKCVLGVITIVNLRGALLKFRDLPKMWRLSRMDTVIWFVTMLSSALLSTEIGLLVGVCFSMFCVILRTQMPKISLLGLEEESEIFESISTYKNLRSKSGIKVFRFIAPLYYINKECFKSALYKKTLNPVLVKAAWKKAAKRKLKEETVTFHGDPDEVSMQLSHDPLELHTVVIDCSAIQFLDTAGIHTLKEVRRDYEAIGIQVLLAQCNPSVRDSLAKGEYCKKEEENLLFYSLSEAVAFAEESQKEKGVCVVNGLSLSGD
To be noted: Satoh, 1998; cited from earlier work.

Experiment [2] has as its target T2, mouse SLC26A1 (Mus musculus, UniProt P58735, C691Y).
T2 construct: Full-length mouse SLC26A6b and SLC26A 1 cDNAs were cloned into the Xenopus expression vector pGEMHE; expressed in transfected cells; host or cells: Xenopus laevis oocytes injected with in vitro transcribed cRNA (pGEMHE)
T2 sequence (P58735 1-704 C691Y): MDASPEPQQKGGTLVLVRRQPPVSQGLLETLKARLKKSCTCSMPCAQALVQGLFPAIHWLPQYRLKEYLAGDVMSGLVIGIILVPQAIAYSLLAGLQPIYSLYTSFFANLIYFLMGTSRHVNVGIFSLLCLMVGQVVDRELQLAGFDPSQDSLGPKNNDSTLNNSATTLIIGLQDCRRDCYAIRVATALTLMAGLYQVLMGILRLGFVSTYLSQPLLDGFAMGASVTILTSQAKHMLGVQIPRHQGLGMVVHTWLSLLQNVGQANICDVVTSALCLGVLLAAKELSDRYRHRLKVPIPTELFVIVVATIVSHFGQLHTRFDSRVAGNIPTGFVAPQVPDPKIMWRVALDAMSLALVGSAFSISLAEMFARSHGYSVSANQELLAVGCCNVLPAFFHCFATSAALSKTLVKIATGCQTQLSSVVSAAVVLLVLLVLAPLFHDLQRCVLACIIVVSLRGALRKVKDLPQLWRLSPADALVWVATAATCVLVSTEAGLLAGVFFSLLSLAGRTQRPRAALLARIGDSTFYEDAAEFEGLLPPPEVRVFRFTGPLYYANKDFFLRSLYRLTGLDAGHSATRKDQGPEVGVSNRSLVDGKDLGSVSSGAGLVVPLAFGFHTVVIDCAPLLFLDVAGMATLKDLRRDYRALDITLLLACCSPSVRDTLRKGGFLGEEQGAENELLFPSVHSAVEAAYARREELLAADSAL
Kind of experiment: Radiolabelled anion uptake in Xenopus oocytes expressing mouse SLC26A1. It counts as cell-based. How it is done:
Full-length mouse SLC26A6b and SLC26A 1 cDNAs were cloned into the Xenopus expression vector pGEMHE (Liman et al., 1992). The SLC26A6 and SLC26A1 expression constructs were linearized, and cRNA was transcribed in vitro using T7 RNA polymerase and a […] MMACHINE® transcription kit (Ambion, Inc. of Austin, Tex., United States of America). Defolliculated oocytes were injected with 25 nl to 50 nl of water or with a solution containing cRNA at a concentration of 0.5 μg/μl (12.5 ng to 25 ng per oocyte) using a Nanoliter-2000 injector (WPI Instruments of Sarasota, Fla., United States of America). Oocytes were incubated at 17° C. in 50% Leibovitz's L-15 media supplemented with penicillin/streptomycin (1000 units/ml) and glutamine for 2-3 days for uptake assays.
For sulphate uptake assays, oocytes were pre-incubated for 20 minutes in chloride-free uptake medium (100 mM NMDG gluconate, 2 mM potassium gluconate, 1 mM calcium gluconate, 1 mM magnesium gluconate, 10 mM HEPES-Tris, pH 6.0 or pH 7.5 as indicated), followed by a 60-minute period for uptake in the same medium supplemented with 1 mM K2^35SO4 (40 μCi/ml). The cells were then washed three times in uptake buffer with 5 mM cold K2SO4 to remove tracer activity in the extracellular fluid. The oocytes were dissolved individually in 10% SDS, and tracer activity was determined by scintillation counting. Uptake of chloride, formate, and oxalate was assayed using the same chloride-free uptake solutions, substituting 8.3 mM ^36Cl, 500 μM [^14C]oxalate, or 50 μM [^14C]formate for labeled sulphate.
For sulphate exchange and cis-inhibition experiments, the concentration of NMDG-gluconate in the uptake solution was adjusted to maintain isotonic osmolality, which was confirmed experimentally using a FISKE® osmometer (Fiske Associates, Inc. of Bethel, Conn., United States of America).

As to `O=C(O)C(=O)O` [oxalate], in experiment [1], the “cis-inhibition of sulphate transport” value is given as “cis-inhibited”. Also, the “effect of extracellular anion on SO4 2− transport via SLC26A1” value in experiment [2] (25 mM of the anion (FIG. 9A, 6C)) is recorded as “strongly cis-inhibitory”. In experiment [2] (SLC26A1-injected oocytes (FIG. 8A)), this molecule showed an oxalate uptake of 72±2 pmol/oocyte/h.
